Results from paper PMC9024521, “4-Heteroaryl Substituted Amino-3,5-Dicyanopyridines as New Adenosine Receptor Ligands: Novel Insights on Structure-Activity Relationships and Perspectives” (Pharmaceuticals, 2022).

Legend:
hA2B AR [1] = target: T1, hA2B AR (Homo sapiens, UniProt P29275); set-up: method as in PMID 15239649; conditions: in comparison with NECA; ref [2]; cited from earlier work
T1 construct: host or cells: CHO cells
T1 sequence (P29275 1-332): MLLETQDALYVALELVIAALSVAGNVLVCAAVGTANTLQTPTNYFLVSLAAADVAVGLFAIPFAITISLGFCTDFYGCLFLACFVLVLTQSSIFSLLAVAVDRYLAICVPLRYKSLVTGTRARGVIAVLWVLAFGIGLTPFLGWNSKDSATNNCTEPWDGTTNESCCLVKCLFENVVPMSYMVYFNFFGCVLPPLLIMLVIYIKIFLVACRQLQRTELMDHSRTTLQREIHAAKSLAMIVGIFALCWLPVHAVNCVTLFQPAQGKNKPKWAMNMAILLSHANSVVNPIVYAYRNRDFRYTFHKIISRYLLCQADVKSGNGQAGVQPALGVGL

hA3AR = target: T2, hA3AR (Homo sapiens, UniProt P0DMS8); test: Competition binding, [125I]AB-MECA, hA3 CHO cell membranes; conditions: for Ki: displacement of [125I]AB-MECA, hA3 CHO cells, mean ± SEM of four assays; for inhibition at 1 µM: 1 µM compound, [125I]AB-MECA binding, read-out: I% hA3 (percentage of inhibition)
T2 construct: host or cells: CHO cells
T2 sequence (P0DMS8 1-318): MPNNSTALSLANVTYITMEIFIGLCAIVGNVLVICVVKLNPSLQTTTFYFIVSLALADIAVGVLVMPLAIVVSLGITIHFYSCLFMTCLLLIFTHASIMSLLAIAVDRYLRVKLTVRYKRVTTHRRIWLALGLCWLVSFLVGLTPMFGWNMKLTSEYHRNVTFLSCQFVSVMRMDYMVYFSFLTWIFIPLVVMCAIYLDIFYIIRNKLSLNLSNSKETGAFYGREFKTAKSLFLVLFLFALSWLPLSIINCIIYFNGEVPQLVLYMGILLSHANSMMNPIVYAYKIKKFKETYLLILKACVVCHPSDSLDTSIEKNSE
Protocol: (§1) CHO cells transfected with hA1, hA2A, hA2B and hA3 ARs (Perkin Elmer, Boston, MA, USA) were grown adherently and maintained in Dulbecco’s modified Eagle’s medium with nutrient mixture F12, containing 10% fetal calf serum, penicillin (100 U/mL), streptomycin (100 μg/mL), L-glutamine (2 mM) and geneticine (G418; 0.2 mg/mL), at 37 °C, in 5% CO2/95% air, until their use in cAMP assays. For membrane preparation, the culture medium was removed, and the cells were washed with phosphate-buffered saline and scraped off T75 flasks in ice-cold hypotonic buffer (5 mM Tris HCl, 1 mM EDTA, pH 7.4). The cell suspension was homogenized with a Polytron, centrifuged for 30 min at 40,000× g, at 4 °C, and the resulting membrane pellet was used for competition binding experiments.
(§2) All synthesized compounds were tested for their affinity to hA1, hA2A and hA3 ARs. Competition experiments to hA1AR were carried out by incubating 1 nM [^3H]-8-cyclopentyl-1,3-dipropylxanthine ([^3H]-DPCPX) with membrane suspension (50 μg of protein/100 μL) and different concentrations of the examined compounds at 25 °C for 90 min in 50 mM Tris HCl, pH 7.4. Non-specific binding was defined as binding in the presence of 1 μM DPCPX and was always <10% of the total binding. Inhibition experiments to hA2A ARs were performed by incubating the radioligand [^3H]-4-(-2-[7-amino-2-{2-furyl}{1,2,4}triazolo{2,3-a} {1,3,5}triazin-5-yl-amino]ethyl)phenol ([^3H]-ZM241385) (1 nM) with the membrane suspension (50 μg of protein/100 μL) and different concentrations of the examined compounds for 60 min, at 4 °C, in 50 mM Tris HCl (pH 7.4), 10 mM MgCl2. Non-specific binding was determined in the presence of ZM241385 (1 μM) and was about 20% of the total binding. Competition binding experiments to A3ARs were carried out by incubating the membrane suspension (50 μg of protein/100 μL) with 0.5 nM [^125I]-N6-(4-aminobenzyl)-N-methylcarboxamidoadenosine ([^125I]-ABMECA) in the presence of different concentrations of the examined compounds for an incubation time of 120 min, at 4 °C, in 50 mM Tris HCl (pH 7.4), 10 mM MgCl2, 1 mM EDTA. Non-specific binding was defined as binding in the presence of 1 μM ABMECA and was always <10% of the total binding. Bound and free radioactivity were separated by filtering the assay mixture through Whatman GF/B glass-fiber filters, using a Brandel cell harvester (Brandel Instruments, Unterföhring, Germany). The filter bound radioactivity was counted by Packard Tri Carb 2810 TR scintillation counter (Perkin Elmer).
(§3) The protein concentration was determined according to a Bio-Rad method, with bovine albumin as a standard reference. Inhibitory binding constant (Ki) values were calculated from those of IC50 according to the Cheng–Prusoff equation, Ki = IC50/(1 + [C*]/KD*), where [C*] is the concentration of the radioligand, and KD* its dissociation constant. Ki and IC50 values were calculated by non-linear regression analysis, using the equation for a sigmoid concentration-response curve (Graph-PAD Prism, San Diego, CA, USA).

hA1AR [2] = target: T3, hA1AR (Homo sapiens, UniProt P30542); test: Modulation of Forskolin-stimulated cAMP levels in hA1 CHO cells; format: cell-based; conditions: for IC50: footnote d, vs CCPA 10 nM; for hA1AR Efficacy: normalized: CCPA full agonist = 100%, DPCPX inverse agonist = −100%; for hA1AR Profile: pharmacological profile in cAMP assay
T3 construct: host or cells: CHO cells
T3 sequence (P30542 1-326): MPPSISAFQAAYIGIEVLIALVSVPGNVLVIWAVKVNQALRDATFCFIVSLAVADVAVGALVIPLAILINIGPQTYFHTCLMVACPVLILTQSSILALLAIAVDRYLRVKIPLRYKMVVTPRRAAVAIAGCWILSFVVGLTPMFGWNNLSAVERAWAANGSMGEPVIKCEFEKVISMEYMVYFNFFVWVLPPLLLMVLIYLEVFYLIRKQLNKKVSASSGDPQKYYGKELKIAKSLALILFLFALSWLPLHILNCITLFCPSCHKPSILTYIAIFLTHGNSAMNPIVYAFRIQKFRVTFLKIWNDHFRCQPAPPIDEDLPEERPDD
Protocol: (§4) The amino-3,5-dicyanopyridines 1–21 were tested for their affinity at hA1, hA2A and hA3 ARs, stably transfected in Chinese Hamster Ovary (CHO) cells. Moreover, they were also studied as hA2B agonists by evaluating their stimulatory effect on cAMP production in CHO cells, stably expressing the hA2B AR. […] Due to their interesting pan profile, both compounds 1 and 5 were evaluated as AR agonists also at the hA2A and hA3 subtypes.
as §1
(§5) CHO cells transfected with hAR subtypes were washed with phosphate-buffered saline, detached with tripsine and centrifuged for 10 min at 200× g. Cells were seeded in a 96-well white half-area microplate (Perkin Elmer, Boston, USA) in a stimulation buffer composed of Hank Balanced Salt Solution, 5 mM HEPES, 0.5 mM Ro 20–1724, 0.1% BSA. The cAMP levels were then quantified by using the AlphaScreen cAMP Detection Kit (Perkin Elmer, Boston, MA, USA), following the manufacturer’s instructions. At the end of the experiments, the plates were read with a Perkin Elmer EnSight Multimode Plate Reader.

hA2B AR [3] = target: T1, hA2B AR; test: cAMP assay in CHO cells expressing hA2B AR (stimulation of cAMP production); format: cell-based; conditions: for Emax at 1 µM: CHO, 1 µM compound, in comparison with NECA (1 µM = 100%), read-out: Efficacy hA2B (cAMP assay) (converted); for EC50: hA2B CHO cells, mean ± SEM of four assays
Protocol: as §4, §1, §5

hA1AR [4] = target: T3, hA1AR; test: Competition binding, [3H]DPCPX, hA1 CHO cell membranes; conditions: displacement of [3H]DPCPX, hA1 CHO cells; mean ± SEM of four assays
Protocol: as §1, §2, §3

hA2AAR = target: T4, hA2AAR (Homo sapiens, UniProt P29274); test: Competition binding, [3H]ZM241385, hA2A CHO cell membranes; conditions: for Ki: displacement of [3H]ZM241385, hA2A CHO cells, mean ± SEM of four assays
T4 construct: host or cells: CHO cells
Protocol: as §1, §2, §3

T4 sequence (P29274 whole entry): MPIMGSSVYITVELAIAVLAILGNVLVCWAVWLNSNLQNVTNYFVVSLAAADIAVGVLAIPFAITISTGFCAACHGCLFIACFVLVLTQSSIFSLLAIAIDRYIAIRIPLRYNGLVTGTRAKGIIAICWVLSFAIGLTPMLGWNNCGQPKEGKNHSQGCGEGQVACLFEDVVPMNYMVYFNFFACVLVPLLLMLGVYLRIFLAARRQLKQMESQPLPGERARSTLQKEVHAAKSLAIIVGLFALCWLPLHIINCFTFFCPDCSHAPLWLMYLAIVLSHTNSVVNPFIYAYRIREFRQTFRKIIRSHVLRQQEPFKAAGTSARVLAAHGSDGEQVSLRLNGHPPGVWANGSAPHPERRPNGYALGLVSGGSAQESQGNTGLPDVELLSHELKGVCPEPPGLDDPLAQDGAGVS

Row | Ki (hA3AR) | IC50 (hA1AR [2]) | hA1AR Efficacy (hA1AR [2]) | hA1AR Profile (hA1AR [2]) | melting point | Emax at 1 µM (hA2B AR [3]) | EC50 (hA2B AR [3]) | Ki (hA1AR [4]) | Ki (hA2AAR) | inhibition at 1 µM (hA3AR) | inhibition at 1 µM (hA2AAR; 1 µM compound, [3H]ZM241385 binding, read-out: I% hA2A (percentage of inhibition)) | EC50 (hA1AR [2]; footnote c, mean ± SEM of four experiments, read-out: hA1AR EC50 or IC50, potency to modulate Forskolin-stimulated cAMP levels) | Structure (SMILES) | Efficacy hA2B (cAMP assay) (hA2B AR [1])
1 |  |  |  |  |  |  |  |  |  |  |  |  | N#Cc1c(N)nc(SCc2ncc[nH]2)c(C#N)c1-c1ccccc1 [LUF5833, 2-amino-6-[(1H-imidazol-2-ylmethyl)sulfanyl]-4-phenylpyridine-3,5-dicarbonitrile] | 81%
2 | 0.849 ± 0.074 µM | 0.125 ± 0.011 µM | 0.82 ± 0.07% | Antagonist | 147 to 148 °C | 4% | > 1 µM | 0.051 ± 0.004 µM | 0.442 ± 0.037 µM |  |  |  | Cl.N#Cc1c(N)nc(SCc2cnc[nH]2)c(C#N)c1-c1ccco1 [Compound 11, 2-Amino-4-(furan-2-yl)-6-[(1H-imidazol-5-ylmethyl)sulfanyl]pyridine-3,5-dicarbonitrile hydrochloride] | 
3 |  |  |  |  | 241 to 242 °C | 13% | > 1 µM | 0.292 ± 0.026 µM |  | 18% | 1% |  | N#Cc1c(NC2CC2)nc(SCc2ncc[nH]2)c(C#N)c1-c1ccco1 [Compound 19] | 
4 | 0.758 ± 0.066 µM |  |  |  | 269 to 270 °C | 1% | > 1 µM | 0.378 ± 0.026 µM | 0.225 ± 0.018 µM |  |  |  | N#Cc1c(N)nc(SCC(=O)NCc2cnc[nH]2)c(C#N)c1-c1ccco1 [Compound 15, 2-{[6-Amino-3,5-dicyano-4-(furan-2-yl)pyridin-2-yl]sulfanyl}-N-(1H-imidazol-5-ylmethyl)acetamide] | 
5 |  |  |  |  | 230 °C (dec.) | 36% | 0.0125 ± 0.0013 µM | 0.00885 ± 0.00082 µM | 0.081 ± 0.007 µM | 26% |  |  | N#Cc1c(N)nc(SCc2ncc[nH]2)c(C#N)c1-c1ccncc1 [Compound 7, 2-Amino-6-[(1H-imidazol-2-ylmethyl)sulfanyl]-4,4′-bipyridine-3,5-dicarbonitrile] | 
6 |  | 0.768 ± 0.067 µM | 1.31 ± 0.11% | Antagonist | 265 to 266 °C | 3% | > 1 µM | 0.315 ± 0.028 µM | 0.157 ± 0.014 µM | 16% |  |  | N#Cc1c(N)nc(NCc2ncc[nH]2)c(C#N)c1-c1ccco1 [Compound 12, 2-Amino-4-(furan-2-yl)-6-[(1H-imidazol-2-ylmethyl)amino]pyridine-3,5-dicarbonitrile] | 
7 |  |  | −43 ± 4% | Inverse Agonist | 223 to 226 °C | 1% | > 1 µM | 0.03 ± 0.003 µM | 0.138 ± 0.011 µM | 30% |  | 0.059 ± 0.004 µM | N#Cc1c(N)nc(SCC(=O)NCCc2cnc[nH]2)c(C#N)c1-c1ccco1 [Compound 16, 2-{[6-Amino-3,5-dicyano-4-(furan-2-yl)pyridin-2-yl]sulfanyl}-N-[2-(1H-imidazol-5-yl)ethyl]acetamide] | 
